{"source": "patent US8410078B2", "about": "“Composition and methods to treat cardiac diseases” (University of Connecticut, priority 2006, dated 2013)", "key": {"[1]": {"system": "mouse thoracic aorta ring", "assay": "Vascular reactivity of phenylephrine-preconstricted thoracic aorta rings", "conditions": "pre-constricted with phenylephrine, 10^−9 to 10^−5 M", "method": "Thoracic aortas were quickly removed from 8 to 10-week wild type (C57 BL6) mice, cut into 3 mm rings. After pre-constriction with phenylephrine (1 μM), increasing concentrations of acetylcholine or MRS2339 were added in a cumulative fashion to achieve a concentration-response curve. The % relaxation was determined as % decrease in ring tension (gram) compared to the tension before the addition of acetylcholine or MRS2339. Data were shown as mean±SEM."}, "CSQ mice": {"system": "CSQ mice", "assay": "Chronic mini-pump administration in CSQ mice: lifespan and cardiac hypertrophy", "format": "in vivo, mouse", "source_text": "Mice displaying the CSQ model of severe cardiomyopathy and heart failure were bred and maintained by methods known in the art. The CSQ transgenic (TG) mice were originally provided by Dr. Larry Jones (Krannert Institute of Cardiology, Indiana University School of Medicine, Indiana), and developed hypertrophy followed by a lethal heart failure phenotype with death near the age of 3 months. Ventricular myocytes were obtained from 3-month old wild type (WT) and CSQ mice of either sex (26 WT, 47 TG) by an enzymatic dissociation procedure. Briefly, the hearts were rapidly excised from mice that had been anesthetized with pentobarbital and treated with 1000 Units of heparin. The aorta was cannulated and the heart perfused in a Langendorff apparatus with oxygenated (95% O2/5% CO2) Ca^2+-free solution (37° C.) for 5 minutes at a rate of 2.5 ml/min. The solution composition was: 126 mM NaCl, 4.4 mM KCl, 1.0 mM MgCl2, 18 mM NaHCO3, 11 mM Glucose, 4 mM HEPES, and 3 mM BDM (2,3-butanedione monoxime), (pH 7.3 adjusted with NaOH). Thereafter, the perfusing solution was changed to that containing 25 μM CaCl2 and liberase (70 μg/ml, Roche Molecular Biochemicals, Inc.) for 8-10 minutes. Cells were sedimented by gravity for 10-15 minutes and the pellet was resuspended in 200 μM Ca^2+-containing Tyrode's solution (containing 3 mM BDM), allowed to settle for 30 minutes at room temperature, and suspended with Tyrode's solution containing: 135 mM NaCl, 5.4 mM KCl, 1.0 mM CaCl2, 1.0 mM MgCl2, 10 mM HEPES and 10 mM dextrose (pH 7.4 adjusted with NaOH). The experiments were carried out at room temperature (22-23° C.) and were completed within 4-6 hours after myocyte isolation.\nCardiac myocyte cross-section area was quantified by methods known in the art. […] The images of cross-sectioned cells showing consistently round shapes were captured with Macrofire® PictureFrame (Optronics, Goleta, Calif.) and cross-section area measured with ImageProPlus® (MediaCybernetics, Silver Spring, Md.). Typically, 50 to 100 cross-sectional areas were determined and averaged per heart. […]"}}, "data": [{"smiles": "Nc1nc(Cl)nc2c1ncn2C1[C@H]2C[C@@]2(COP(=O)(O)O)[C@@H](O)[C@H]1O", "note": "(stereo partly drawn) [MRS2339, (1′S,2′R,3′S,4′R,5′S)-4-(6-amino-2-chloro-9H-purin-9-yl)-1-[phosphoryloxymethyl]bicyclo[3.1.0]hexane-2,3-diol]", "values": [{"measurement": "Relaxation of aorta ring segments", "setting": "[1]", "result": "did not induce relaxation"}, {"measurement": "Median lifespan", "setting": "CSQ mice; 3 μM solution, about 6 μl per day for 28 days via mini-pump", "result": 115, "unit": "days"}, {"measurement": "Cardiac myocyte cross-section area", "setting": "CSQ mice; chronic mini-pump treatment", "result": "281±15", "unit": "μm^2"}, {"measurement": "Heart weight/body weight ratio", "setting": "CSQ mice; chronic mini-pump treatment", "result": "10.5±1.38"}]}]}
